Experimental findings from patent publication US20160207928A1, “NOVEL COMPOUNDS FOR THE TREATMENT OF CANCER” (BAYER PHARMA AKTIENGESELLSCHAFT, priority 2013, published 2016) are described below.

Molecules are shown by their SMILES. pIC50: −log10 of the molar value. Bounds are passed on as bounds.

By pIC50 is commonly meant the IC50 on a negative log10 scale, so that one unit is a factor of ten.

For the assay, the target named is T1, human kinase Mps-1 (Homo sapiens, UniProt P33981).
T1 construct: N-terminally GST-tagged human full length recombinant Mps-1 kinase; purchased Invitrogen, Karslruhe, Germany PV4071
T1 sequence (P33981 1-857): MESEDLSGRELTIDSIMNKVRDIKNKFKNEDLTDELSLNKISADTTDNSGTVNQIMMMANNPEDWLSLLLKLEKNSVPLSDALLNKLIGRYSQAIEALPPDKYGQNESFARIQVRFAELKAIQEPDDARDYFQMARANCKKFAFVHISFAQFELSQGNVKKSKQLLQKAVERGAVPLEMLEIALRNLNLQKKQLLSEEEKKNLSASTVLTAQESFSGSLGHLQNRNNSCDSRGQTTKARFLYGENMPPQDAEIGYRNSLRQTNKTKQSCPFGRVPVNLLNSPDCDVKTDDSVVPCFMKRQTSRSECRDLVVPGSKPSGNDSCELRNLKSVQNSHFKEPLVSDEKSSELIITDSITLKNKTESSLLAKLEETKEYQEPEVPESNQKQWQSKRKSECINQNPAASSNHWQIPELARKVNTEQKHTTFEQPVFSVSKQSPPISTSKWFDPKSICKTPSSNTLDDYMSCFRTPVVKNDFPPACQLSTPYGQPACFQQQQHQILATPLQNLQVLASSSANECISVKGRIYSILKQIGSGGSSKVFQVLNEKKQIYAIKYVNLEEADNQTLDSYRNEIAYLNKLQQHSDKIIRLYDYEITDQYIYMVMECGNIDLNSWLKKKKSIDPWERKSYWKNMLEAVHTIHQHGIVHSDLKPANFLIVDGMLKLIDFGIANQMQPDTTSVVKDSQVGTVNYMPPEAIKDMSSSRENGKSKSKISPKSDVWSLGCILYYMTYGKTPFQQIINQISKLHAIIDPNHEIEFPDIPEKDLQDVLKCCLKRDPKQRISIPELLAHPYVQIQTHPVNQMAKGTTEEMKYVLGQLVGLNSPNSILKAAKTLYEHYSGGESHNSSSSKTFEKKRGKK
The assay can be described thus: Mps-1 kinase assay (TR-FRET, 10 μM ATP). The conditions noted are these: N-terminally GST-tagged human full length recombinant Mps-1, read-out: Mps-1 Inhibition, IC50 (Assay with 10 μM ATP). Type of assay: biochemical. How it is done:
The human kinase Mps-1 phosphorylates a biotinylated substrate peptide. Detection of the phosphorylated product is achieved by time-resolved fluorescence resonance energy transfer (TR-FRET) from Europium-labelled anti-phospho-Serine/Threonine antibody as donor to streptavidin Labelled with cross-linked allophycocyanin (SA-XLent) as acceptor. Compounds are tested for their inhibition of the kinase activity.
N-terminally GST-tagged human full length recombinant Mps-1 kinase (purchased from Invitrogen, Karslruhe, Germany, cat. no PV4071) was used. As substrate for the kinase reaction a biotinylated peptide of the amino-acid sequence PWDPDDADITEILG (C-terminus in amide form, purchased from Biosynthan GmbH, Berlin) was used.
For the assay 50 nl of a 100-fold concentrated solution of the test compound in DMSO was pipetted into a black low volume 384 well microtiter plate (Greiner Bio-One, Frickenhausen, Germany), 2 μl of a solution of Mps-1 in assay buffer [0.1 mM sodium-ortho-vanadate, 10 mM MgCl2, 2 mM DTT, 25 mM Hepes pH 7.7, 0.05% BSA, 0.001% Pluronic F-127] were added and the mixture was incubated for 15 min at 22° C. to allow pre-binding of the test compounds to Mps-1 before the start of the kinase reaction. Then the kinase reaction was started by the addition of 3 μl of a solution of […] (ATP, 16.7 μM=>final conc. in the 5 μl assay volume is 10 μM) and peptide substrate (1.67 μM=>final conc. in the 5 μl assay volume is 1 μM) in assay buffer and the resulting mixture was incubated for a reaction time of 60 min at 22° C. The concentration of Mps-1 in the assay was adjusted to the activity of the enzyme lot and was chosen appropriate to have the assay in the linear range, typical enzyme concentrations were in the range of about 1 nM (final conc. in the 5 μl assay volume). The reaction was stopped by the addition of 3 μl of a solution of HTRF detection reagents (100 mM Hepes pH 7.4, 0.1% BSA, 40 mM EDTA, 140 nM Streptavidin-XLent [#61GSTXLB, Fa. Cis Biointernational, Marcoule, France], 1.5 nM anti-phospho(Ser/Thr)-Europium-antibody [#AD0180, PerkinElmer LAS, Rodgau-Jügesheim, Germany].
The resulting mixture was incubated 1 h at 22° C. to allow the binding of the phosphorylated peptide to the anti-phospho(Ser/Thr)-Europium-antibody. Subsequently the amount of phosphorylated substrate was evaluated by measurement of the resonance energy transfer from the Europium-labelled anti-phospho(Ser/Thr) antibody to the Streptavidin-XLent. Therefore, the fluorescence emissions at 620 nm and 665 nm after excitation at 350 nm was measured in a Viewlux TR-FRET reader (PerkinElmer LAS, Rodgau-Jügesheim, Germany). The “blank-corrected normalized ratio” (a Viewlux specific readout, similar to the traditional ratio of the emissions at 665 nm and at 622 nm, in which blank and Eu-donor crosstalk are subtracted from the 665 nm signal before the ratio is calculated) was taken as the measure for the amount of phosphorylated substrate. The data were normalised (enzyme reaction without inhibitor=0% inhibition, all other assay components but no enzyme=100% inhibition).
(In general: TR-FRET usually uses a lanthanide donor and a delayed reading to cut background.)
For the compound `COc1cc(C(=O)N2CCOCC2)ccc1Nc1nc2ccc(-c3ccc(NC(=O)Cc4ccc(F)cc4)cc3)nn2n1` [Example 1.1, 2-(4-fluorophenyl)-N-[4-(2-{[2-methoxy-4-(morpholin-4-ylcarbonyl)phenyl]amino}[1,2,4]triazolo[1,5-b]pyridazin-6-yl)phenyl]acetamide], the pIC50 was no less than 9.00.
The result for `COc1cc(C(C)(C)O)ccc1Nc1nc2ccc(-c3ccc(NC(=O)Cc4ccc(F)cc4)cc3)nn2n1` [Example 1.2, 2-(4-fluorophenyl)-N-[4-(2-{[4-(2-hydroxypropan-2-yl)-2-methoxyphenyl]amino}[1,2,4]triazolo[1,5-b]pyridazin-6-yl)phenyl]acetamide] reads no less than 9.00; that for `N#Cc1ccccc1Nc1nc2cnc(-c3ccc(NC(=O)Cc4ccc(F)cc4)cc3)cn2n1` [Example 2.1, N-(4-{2-[(2-cyanophenyl)amino][1,2,4]triazolo[1,5-a]pyrazin-6-yl}phenyl)-2-(4-fluorophenyl)acetamide], no less than 9.00.
Turning to `N#Cc1c(F)cccc1Nc1nc2cnc(-c3ccc(NC(=O)Cc4ccc(F)cc4)cc3)cn2n1` [Example 2.2, N-(4-{2-[(2-cyano-3-fluorophenyl)amino][1,2,4]triazolo[1,5-a]pyrazin-6-yl}phenyl)-2-(4-fluorophenyl)acetamide], the pIC50 was no less than 9.00.
As to `N#Cc1ccccc1Nc1nc2cnc(-c3ccc(NC(=O)Cc4ccccc4)cc3)cn2n1` [Example 2.3, N-(4-{2-[(2-cyanophenyl)amino][1,2,4]triazolo[1,5-a]pyrazin-6-yl}phenyl)-2-phenylacetamide], the pIC50 is 8.59.
Turning to `COc1cc(N2CCN(C)CC2)ccc1Nc1nc2cnc(-c3ccc(NC(=O)Cc4ccc(F)cc4)cc3)cn2n1` [Example 2.4, 2-(4-fluorophenyl)-N-[4-(2-{[2-methoxy-4-(4-methylpiperazin-1-yl)phenyl]amino}[1,2,4]triazolo[1,5-a]pyrazin-6-yl)phenyl]acetamide], the pIC50 is no less than 9.00.
Turning to `N#Cc1c(F)cccc1Nc1nc2cnc(-c3ccc(NC(=O)Cc4ccccc4)cc3)cn2n1` [Example 2.5, N-(4-{2-[(2-cyano-3-fluorophenyl)amino][1,2,4]triazolo[1,5-a]pyrazin-6-yl}phenyl)-2-phenylacetamide], the pIC50 was no less than 9.00.
Regarding `N#Cc1ccccc1Nc1nc2cnc(-c3ccc(NC(=O)Cc4ccc(F)c(F)c4)cc3)cn2n1` [Example 2.6, N-(4-{2-[(2-cyanophenyl)amino][1,2,4]triazolo[1,5-a]pyrazin-6-yl}phenyl)-2-(3,4-difluorophenyl)acetamide], the pIC50 was 8.68.
As to `N#Cc1c(F)cccc1Nc1nc2cnc(-c3ccc(NC(=O)Cc4ccc(F)c(F)c4)cc3)cn2n1` [Example 2.7, N-(4-{2-[(2-cyano-3-fluorophenyl)amino][1,2,4]triazolo[1,5-a]pyrazin-6-yl}phenyl)-2-(3,4-difluorophenyl)acetamide], the negative logarithm of the IC50 (pIC50) was 8.54.
The result for `COc1cc(S(C)(=O)=O)ccc1Nc1nc2cnc(-c3ccc(NC(=O)Cc4ccc(F)cc4)cc3)cn2n1` [Example 2.8, 2-(4-fluorophenyl)-N-[4-(2-{[2-methoxy-4-(methylsulfonyl)phenyl]amino}[1,2,4]triazolo[1,5-a]pyrazin-6-yl)phenyl]acetamide] reads no less than 9.00; that for `Cc1cc(-c2cn3nc(Nc4ccccc4C#N)nc3cn2)cc(C)c1O` [Example 3.1, 2-{[6-(4-hydroxy-3,5-dimethylphenyl)[1,2,4]triazolo[1,5-a]pyrazin-2-yl]amino}benzonitrile], 7.47; that for `N#Cc1ccccc1Nc1nc2cnc(-c3ccc(NC(=O)CC4CC4)cc3)cn2n1` [Example 3.2, N-(4-{2-[(2-cyanophenyl)amino][1,2,4]triazolo[1,5-a]pyrazin-6-yl}phenyl)-2-cyclopropylacetamide], 7.65.
As to `N#Cc1ccccc1Nc1nc2cnc(-c3cccc(C(=O)NC4CC4)c3)cn2n1` [Example 3.3, 3-{2-[(2-cyanophenyl)amino][1,2,4]triazolo[1,5-a]pyrazin-6-yl}-N-cyclopropylbenzamide], the pIC50 was 7.08.
As to `CCNC(=O)c1cccc(-c2cn3nc(Nc4ccccc4C#N)nc3cn2)c1` [Example 3.4, 3-{2-[(2-cyanophenyl)amino][1,2,4]triazolo[1,5-a]pyrazin-6-yl}-N-ethylbenzamide], the pIC50 was 6.69.
As to `N#Cc1ccccc1Nc1nc2cnc(-c3cccc(C(=O)NC4CCCC4)c3)cn2n1` [Example 3.5, 3-{2-[(2-cyanophenyl)amino][1,2,4]triazolo[1,5-a]pyrazin-6-yl}-N-cyclopentylbenzamide], the pIC50 was 7.45.
`N#Cc1c(F)cccc1Nc1nc2cnc(-c3ccc(NC(=O)CC4CC4)cc3)cn2n1` [Example 3.6, N-(4-{2-[(2-cyano-3-fluorophenyl)amino][1,2,4]triazolo[1,5-a]pyrazin-6-yl}phenyl)-2-cyclopropylacetamide]: the pIC50 was 7.84.
As for `N#Cc1ccccc1Nc1nc2cnc(-c3ccc(N)cc3)cn2n1` [Example 3.7, 2-{[6-(4-aminophenyl)[1,2,4]triazolo[1,5-a]pyrazin-2-yl]amino}benzonitrile], the figure is 6.35; as for `COc1ccccc1Nc1nc2cnc(-c3cc(C)c(O)c(C)c3)cn2n1` [Example 3.8, 4-{2-[(2-methoxyphenyl)amino][1,2,4]triazolo[1,5-a]pyrazin-6-yl}-2,6-dimethylphenol], 7.15.
As for `N#Cc1ccccc1Nc1nc2cnc(-c3cccc(C(=O)NC4CCCCC4)c3)cn2n1` [Example 3.9, 3-{2-[(2-cyanophenyl)amino][1,2,4]triazolo[1,5-a]pyrazin-6-yl}-N-cyclohexylbenzamide], the figure is 7.16; as for `COc1cc(C(=O)N2CCOCC2)ccc1Nc1nc2ccc(-c3ccc(NC(=O)Cc4ccc(F)cc4)cc3)cc2s1` [Example 4.1, 2-(4-fluorophenyl)-N-[4-(2-{[2-methoxy-4-(morpholin-4-ylcarbonyl)phenyl]amino}-1,3-benzothiazol-6-yl)phenyl]acetamide], no less than 9.00; as for `COc1cc(S(C)(=O)=O)ccc1Nc1nc2ccc(-c3ccc(NC(=O)Cc4ccc(F)cc4)cc3)cc2s1` [Example 4.2, 2-(4-fluorophenyl)-N-[4-(2-{[2-methoxy-4-(methylsulfonyl)phenyl]amino}-1,3-benzothiazol-6-yl)phenyl]acetamide], 8.54.
On to `Nc1nc2ccc(-c3ccc(NC(=O)Cc4ccc(F)cc4)cc3)cc2s1` [Example 4.3, N-[4-(2-amino-1,3-benzothiazol-6-yl)phenyl]-2-(4-fluorophenyl)acetamide], for which the negative logarithm of the IC50 (pIC50) was 8.07.
